Experimental data from patent US20230272002A1, “PHOTOREDOX PROTEIN MODIFICATION” (THE ROSALIND FRANKLIN INSTITUTE, priority 2020, published 2023).

Key:
KDM4A = target: T1, KDM4A (Homo sapiens, UniProt O75164); assay: Zn ejection assay (TSQ Zn(II) fluorophore); assay type: biochemical; details: 20 μM compound, 2 μM KDM4A
T1 sequence (O75164 1-1064): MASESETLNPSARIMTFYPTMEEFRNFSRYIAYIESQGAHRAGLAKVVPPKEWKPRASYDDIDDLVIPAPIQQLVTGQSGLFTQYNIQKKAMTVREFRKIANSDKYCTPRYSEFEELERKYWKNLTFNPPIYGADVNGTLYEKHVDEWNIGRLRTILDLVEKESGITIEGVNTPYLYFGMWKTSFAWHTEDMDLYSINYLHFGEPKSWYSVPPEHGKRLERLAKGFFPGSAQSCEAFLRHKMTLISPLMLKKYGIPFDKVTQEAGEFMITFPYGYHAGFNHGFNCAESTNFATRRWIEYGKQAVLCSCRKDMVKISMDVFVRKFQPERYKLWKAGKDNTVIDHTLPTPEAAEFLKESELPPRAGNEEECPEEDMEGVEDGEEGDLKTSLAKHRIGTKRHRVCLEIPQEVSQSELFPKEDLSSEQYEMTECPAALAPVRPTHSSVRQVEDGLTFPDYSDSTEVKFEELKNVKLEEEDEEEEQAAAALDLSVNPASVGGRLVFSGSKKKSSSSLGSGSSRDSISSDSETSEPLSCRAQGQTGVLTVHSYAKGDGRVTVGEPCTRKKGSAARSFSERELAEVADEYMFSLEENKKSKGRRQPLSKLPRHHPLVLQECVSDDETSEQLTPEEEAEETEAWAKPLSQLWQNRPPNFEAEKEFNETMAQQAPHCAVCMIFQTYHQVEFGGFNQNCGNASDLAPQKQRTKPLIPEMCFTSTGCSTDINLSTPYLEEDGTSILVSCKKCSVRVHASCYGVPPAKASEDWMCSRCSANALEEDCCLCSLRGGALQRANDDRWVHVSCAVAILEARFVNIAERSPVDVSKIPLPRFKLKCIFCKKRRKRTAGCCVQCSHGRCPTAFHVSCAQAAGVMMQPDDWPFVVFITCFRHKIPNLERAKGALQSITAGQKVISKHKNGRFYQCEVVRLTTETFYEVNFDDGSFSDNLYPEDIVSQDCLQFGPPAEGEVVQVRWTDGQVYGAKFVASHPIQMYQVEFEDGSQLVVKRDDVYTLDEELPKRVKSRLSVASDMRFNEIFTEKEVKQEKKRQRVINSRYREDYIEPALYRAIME
Experimental: Zn ejection assay was performed using N-(6-nethoxy-8-quinolyl)-p-toluenesulfonamide (TSQ) (Enzo) Zn(II) fluorophore as described with minor modifications28,33. In brief, assays were performed in 384 well black μCLEAR® non-binding plates (Grenier) using a reaction volume of 100 μL at 37° C. on a BMG CLARIOstar (360ex/490em). The plate was shaken (5 s, 700 rpm) before each reading, taken every 22 s for 270 cycles. Reactions consisted of […], 25 μM Ebselen or 20 μM H3 K9Bhn/H3-wt/4-bromobutylboronic acid, and those with enzyme contained 2 μM KDM4A all with 1.1% (v/v) DMSO in 50 mM HEPES (pH 7.5). Compounds and TSQ were added to the plate before initiating the assay with addition of KDM4A using the CLARIOstar injector (FIG. 4d). An internal calibration curve of ZnCl2 (0-2 μM) in 50 mM HEPES (pH 7.5) was included in each experiment to quantitate the concentrations of Zn(II) ejected. Data were normalised by subtracting a no enzyme control for that compound at each time point. Mean±standard deviation (n=3 technical replicates) was plotted for each time point using GraphPad Prism 5.0, representative data from three biological replicates is shown.
The rate of Zn(II) ejection was calculated from the slope of linear regression plotted over the linear region of Zn(II) ejection (from 946-3982 s) plotted in GraphPad Prism 5.0. […]

Cyclic voltammetry = assay type: physicochemical
Experimental: Catechol and 4-bromobutylboronic acid were obtained from Sigma-Aldrich and used as received without further purification. All solutions were made up using ultrapure water of resistivity not less than 18.2 MQ cm (Millipore) at 25° C. and degassed thoroughly with nitrogen (99.998%, BOC Gases plc) before use. Phosphate buffered saline (PBS) solution (pH=6.0) consisting of 43.85 mM sodium phosphate monobasic and 6.15 mM potassium phosphate dibasic.
All voltammetric measurements were recorded using an Autolab PGSTAT30 computer controlled potentiostat (Metrohm, Utrecht, The Netherlands). Experiments were performed in a thermostatted (25.0+0.3° C.) Faraday cage using a three-electrode set-up. A glassy carbon macroelectrode (diameter 3.0 mm, CH Instrument) was used as the working electrode, a saturated calomel electrode (SCE) as the reference electrode (SCE, ALS distributed by BASi, Tokyo, Japan) and a graphite rod as the counter electrode. Prior to each voltammetric experiment, renewal of the working electrode surface was achieved by polishing with alumina slurries in the size sequence 1.0 m, 0.3 m and 0.05 m, (Buehler Ltd, USA) followed by sonication in water and drying with nitrogen.

Sirt2 = target: T2, Sirt2 (Homo sapiens, UniProt Q8IXJ6); assay: Sirt2 deacylation of acylated histone H3-K18 (intact-protein LC-MS timecourse, 19F-NMR); assay type: biochemical; details: deacylation of γ-F2 labelled KAc side chain, protein 19F NMR
T2 construct: His tag (inferred from the HisTrap purification); made in house; host or cells: E. coli BL21(DE3)
T2 sequence (Q8IXJ6 1-389): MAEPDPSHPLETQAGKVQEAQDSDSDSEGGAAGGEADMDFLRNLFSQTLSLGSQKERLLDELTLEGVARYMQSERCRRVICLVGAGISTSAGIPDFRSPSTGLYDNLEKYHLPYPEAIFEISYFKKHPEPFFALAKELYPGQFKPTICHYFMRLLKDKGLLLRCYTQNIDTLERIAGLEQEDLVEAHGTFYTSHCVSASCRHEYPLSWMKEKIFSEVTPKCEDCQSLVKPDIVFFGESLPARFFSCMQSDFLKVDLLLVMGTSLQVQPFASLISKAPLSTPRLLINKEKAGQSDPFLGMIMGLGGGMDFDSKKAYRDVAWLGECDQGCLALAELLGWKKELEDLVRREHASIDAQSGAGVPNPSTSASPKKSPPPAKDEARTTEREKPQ
Source text: H3-KAc18 and H3-KBzl8 were generated using BACED reagents (FIG. 4A).
The pySOOF reagents were also used to generate corresponding H—F labeled side chain analogues such as K[γF2]Ac and K[γF2] sidechains 2 k and 2f, respectively. […] Other sidechain variations could similarly be distinguished at different sites in the same protein e.g. H3.1-K9→H3.1-KAc9→H3.1-Kme39 (sidechains 2f→2 k→2j=δF −99.0→−98.0→−99.2) or H3.1-M27 (sidechain 2×δF −74.8) or H3.1-E9 (sidechain 2u δF −103.3). In this way, the diverse scope of available further sidechains allows this approach to be explored in numerous additional directions such as e.g. monitoring heteroatom variation (e.g. N→O, ‘deaza-oxo’ variant KOAc, sidechain 2r for H3.1-K18→H3.1-KOAc18, sidechains 2 k→2r) or even precisely assaying sidechain Met oxidation state (H3.1-M27→H3.1-Mox27→H3.1-Mox27, sidechains 2x→2y→2z).
Due to the site-selectivity of the insertion of this label and its excellent sensitivity in ‘zero background’, not only could chemical shift of ^19F signal be ‘read’ but also its multiplicity through correlated simulation (FIG. 4B).

OB(O)CCCCBr [Example 1u-precursor, 4-bromobutylboronic acid]
Time-dependent release of Zn(II) from KDM4A observed (KDM4A): not
Zn(II)-ejection rate (KDM4A; 50 mM HEPES pH 7.5, 37° C., slope of linear region 946-3982 s): 0.805 ± 0.010 nM/min
oxidation in the absence of catechol (Cyclic voltammetry; absence of catechol): no oxidation was observed
half potential Eox (irreversible oxidation event) (Cyclic voltammetry; catechol-enhanced conditions (1:12), saturated calomel reference electrode): +0.93 V

B1: Sirt2: HDAC deacylation enzyme Sirt2 (protein, UniProt Q8IXJ6 2-389, looked up)
NAD-dependent protein …: AEPDPSHPLETQAGKVQEAQDSDSDSEGGAAGGEADMDFLRNLFSQTLSLGSQKERLLDELTLEGVARYMQSERCRRVICLVGAGISTSAGIPDFRSPSTGLYDNLEKYHLPYPEAIFEISYFKKHPEPFFALAKELYPGQFKPTICHYFMRLLKDKGLLLRCYTQNIDTLERIAGLEQEDLVEAHGTFYTSHCVSASCRHEYPLSWMKEKIFSEVTPKCEDCQSLVKPDIVFFGESLPARFFSCMQSDFLKVDLLLVMGTSLQVQPFASLISKAPLSTPRLLINKEKAGQSDPFLGMIMGLGGGMDFDSKKAYRDVAWLGECDQGCLALAELLGWKKELEDLVRREHASIDAQSGAGVPNPSTSASPKKSPPPAKDEARTTEREKPQ
L/D selectivity preference (Sirt2): > 14
ΔΔG of L/D selectivity (Sirt2): > 1.58 kcal/mol
